Measurements: patent US20120095022A1, “DERIVATIVES OF 10-AMINO-1,2,3,4-TETRAHYDROPYRIDO[2,1-A]ISOINDOL-6(10BH)-ONES, METHOD FOR PREPARATION THEREOF AND THERAPEUTIC USES THEREOF” (UNIVERSITE D'ORLEANS, priority 2009, published 2012)

Columns and labels:
Caco (colon) = assay: Cytotoxicity on human cells, automated nuclei counting: Caco; format: cell-based; conditions: exposed 24 h to 48 h, 0.1 to 25 μM
Protocol: (§1) Cytotoxicity: This method is based on an automated imaging analysis. 4.10^3 cells were cultivated on 96-well plates and left for 24 hours so as to bind, to spread and proliferate.
(§2) All the cell lines were cultivated in a DMEM or RPMI (Invitrogen) medium. All these media were completed with antibiotics (penicillin-streptomycin) (Lonza) and 10% by volume of fetal calf serum (Invitrogen). The cells were cultivated at 37° C. with 5% of CO2. The treatments with the molecules to be tested were carried out with increasing concentrations. The control experiments were also carried out by using suitable dilutions of DMSO (maximum 1% DMSO).

CDK5/D25 = biological target: T1, CDK5/D25 (Homo sapiens, UniProt Q00535); assay: CDK5 kinase inhibition (33P-ATP, histone H1); format: biochemical; conditions: buffer C, 30° C., 15 μM ATP, read-out: IC50 μM Kinases CDK5
T1 construct: made in house
T1 sequence (Q00535 whole entry): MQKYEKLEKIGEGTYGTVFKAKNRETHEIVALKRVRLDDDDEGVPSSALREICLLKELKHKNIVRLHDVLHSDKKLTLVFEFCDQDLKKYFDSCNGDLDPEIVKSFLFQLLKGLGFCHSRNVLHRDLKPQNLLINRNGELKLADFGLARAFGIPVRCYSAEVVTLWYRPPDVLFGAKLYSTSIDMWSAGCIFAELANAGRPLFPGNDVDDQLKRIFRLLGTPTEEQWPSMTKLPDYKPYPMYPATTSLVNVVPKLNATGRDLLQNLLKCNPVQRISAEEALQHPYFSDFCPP
T1 sequence (Q15078 99-307 partner limits assumed): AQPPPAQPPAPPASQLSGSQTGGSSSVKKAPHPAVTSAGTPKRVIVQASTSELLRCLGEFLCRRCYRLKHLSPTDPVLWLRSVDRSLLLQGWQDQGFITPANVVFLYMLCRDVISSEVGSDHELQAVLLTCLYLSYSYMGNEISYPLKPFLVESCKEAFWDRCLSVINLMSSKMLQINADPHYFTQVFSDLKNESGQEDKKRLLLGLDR
Protocol: The protein kinase inhibition activities of the compounds of the invention are tested according to the following general procedure:
Buffer C: 60 mM β-glycerophosphate, 15 mM p-nitrophenyl-phosphate, 25 mM Mops (pH 7.2), 5 mM EGTA, 15 mM mgCl2, 1 mM DTT, 1 mM sodium vanadate and 1 mM phenylphosphate.
The controls were made with suitable dilutions of DMSO.
ATP (3.000 Ci/mmol.; 10 mCi/mL) in a final volume of 30 μL. After 30 mins of incubation at 30° C., 25 μL of supernatant aliquots were deposited on phosphocellulose Whatman P81 paper pieces of 2.5×3 cm, and after 20 seconds, the filters were washed five times (for at least 5 minutes each time) in a solution of 10 mL of phosphoric acid/1 litre of water. The wet filters were counted in the presence of 1 mL of scintillation fluid ACS (Amersham).

MDA-MB 231 (breast) = assay: Cytotoxicity on human cells, automated nuclei counting: MDA-MB 231; format: cell-based; conditions: MDA-MB 231 cells, exposed 24 h to 48 h, 0.1 to 25 μM
Protocol: as §1, §2

HCT 116 (colon) = assay: Cytotoxicity on human cells, automated nuclei counting: HCT 116; format: cell-based; conditions: HCT 116 cells, exposed 24 h to 48 h, 0.1 to 25 μM
Protocol: as §1, §2

PC3 (prostate) = assay: Cytotoxicity on human cells, automated nuclei counting: PC3; format: cell-based; conditions: PC-3, exposed 24 h to 48 h, 0.1 to 25 μM
Protocol: as §1, §2

fibroblast = assay: Cytotoxicity on human cells, automated nuclei counting: fibroblast; format: cell-based; conditions: exposed 24 h to 48 h, 0.1 to 25 μM
Protocol: as §1, §2

Huh7 (liver) = assay: Cytotoxicity on human cells, automated nuclei counting: Huh7; format: cell-based; conditions: Huh-7, exposed 24 h to 48 h, 0.1 to 25 μM
Protocol: as §1, §2

NCI (lung) = assay: Cytotoxicity on human cells, automated nuclei counting: NCI; format: cell-based; conditions: exposed 24 h to 48 h, 0.1 to 25 μM
Protocol: as §1, §2

| Structure (SMILES) | melting point [°C] | IC50 (Caco (colon)) [µM] | IC50 (CDK5/D25) [µM] | IC50 (MDA-MB 231 (breast)) [µM] | IC50 (HCT 116 (colon)) [µM] | IC50 (PC3 (prostate)) [µM] | IC50 (fibroblast) [µM] | IC50 (Huh7 (liver)) [µM] | IC50 (NCI (lung)) [µM] |
| --- | --- | --- | --- | --- | --- | --- | --- | --- | --- |
| O=C(Nc1ccccn1)Nc1cccc2c1C1C[C@@H](O)CCN1C2=O (stereo partly drawn) [Compound 104, 1-((2S)-2-Hydroxy-6-oxo-1,2,3,4,6,10b-hexahydropyrido[2,1-a]iso-indol-10-yl)-3-(pyridin-2-yl)urea] | 220 | 7 | 2.1 | 3 | 1 | 3 | 2 | 2 | 3 |
| O=C(NCc1ccccc1)Nc1cccc2c1C1CCCCN1C2=O (stereo not shown) [Compound 92, N-Benzyl-N′-(6-oxo-1,2,3,4,6,10b-hexahydropyrido[2,1-a]isoindol-10-yl)urea] | 183 |  |  |  |  |  |  |  |  |
| O=C1c2cccc(-n3c(=O)[nH]c4ncccc4c3=O)c2C2CCCCN12 (stereo not shown) [Compound 117, 3-(6-Oxo-1,2,3,4,6,10b-hexahydro-pyrido[2,1-a]isoindol-10-yl)-1H-pyrido[2,3-d]pyrimidine-2,4-dione] | > 290 |  |  |  |  |  |  |  |  |
| O=C(Nc1cccc2c1C1CCCCN1C2=O)NN1CCCCC1 (stereo not shown) [Compound 85, N-(6-Oxo-1,2,3,4,6,10b-hexahydropyrido[2,1-a]isoindol-10-yl)-N′-(piperidin-1-yl)urea] | 166 |  |  |  |  |  |  |  |  |
| O=C1CCN2C(=O)c3cccc(NC(=O)Nc4cnccn4)c3C2C1 (stereo not shown) [Compound 98, 1-(2,6-Dioxo-1,2,3,4,6,10b-hexahydropyrido[2,1-a]isoindol-10-yl)-3-(pyrazin-2-yl)urea] |  | 25 | > 10 | > 25 | 20 | > 25 | > 25 | > 25 | > 25 |
| O=C1c2cccc(-n3c(=O)[nH]c4cnccc4c3=O)c2C2CC3(CCN12)OCCO3 (stereo not shown) [Compound 113, 3-(6′-oxo-3′,4′,6′,10b′-tetrahydro-1′H-spiro[[1,3]dioxolane-2,2′-pyrido[2,1-a]isoindole]-10′-yl)pyrido[3,4-d]pyrimidine-2,4(1H,3H)-dione] | 204 |  |  |  |  |  |  |  |  |
| Cc1cccnc1NC(=O)Nc1cccc2c1C1CC(O)CCN1C2=O (stereo not shown) [Compound 107, 1-(2-Hydroxy-6-oxo-1,2,3,4,6,10b-hexahydropyrido[2,1-a]isoindol-10-yl)-3-(3-methylpyridin-2-yl)urea] | 204 to 206 | 12 | 0.63 | 8 | 1.5 | 5 | 6 | 5 | 7 |
| O=C(Nc1cc[nH]n1)Nc1cccc2c1C1CC3(CCN1C2=O)SCCS3 (stereo not shown) [Compound 77, 1-(6′-Oxo-3′,4′,6′,10b′-tetrahydro-1′H-spiro[[1,3]dithiolane-2,2′-pyrido[2,1-a]isoindole]-10′-yl)-3-(1H-pyrazol-3-yl)urea] | 184 |  |  |  |  |  |  |  |  |
| O=C(Nc1cnccn1)Nc1cccc2c1C1CC3(CCN1C2=O)OCCO3 (stereo not shown) [Compound 29, 1-(6′-Oxo-3′,4′,6′,10b′-tetrahydro-1′H-spiro[[1,3]dioxolane-2,2′-pyrido[2,1-a]isoindole]-10′-yl)-3-(pyrazin-2-yl)urea] |  | 5 | 7.1 | 3 | 1.5 | 5 | 10 | 3 | 8 |
| O=C1CCN2C(=O)c3cccc(-n4c(=O)[nH]c5cnccc5c4=O)c3C2C1 (stereo not shown) [Compound 99, 10-(2,4-dioxo-1,2-dihydropyrido[3,4-d]pyrimidin-3(4H)-yl)-1,3,4,10b-tetrahydropyrido[2,1-a]isoindole-2,6-dione] | 230 |  |  |  |  |  |  |  |  |
| O=C(Nc1cccc(Br)n1)Nc1cccc2c1C1CC3(CCN1C2=O)SCCS3 (stereo not shown) [Compound 21, 1-(6-Bromopyridin-2-yl)-3-(6′-oxo-3′,4′,6′,10b′-tetrahydro-1′H-spiro[[1,3]dithiolane-2,2′-pyrido[2,1-a]isoindole]-10′-yl)urea] | 170 | 3 | > 10 | 4 | 2.5 | 4 | 9 | 2 | 6 |
